Experimental data from patent US7598273B2, “Inhibitors of the gastric H+, K+-ATPase with enhanced therapeutic properties” (Auspex Pharmaceuticals, Inc, priority 2005, dated 2009).

System: not given
Experiment: not given
Details: human, topical or ocular

Structure (SMILES) | degradation half-life increased as compared to non-isotopically enriched omeprazole | increase in the degradation half-life, as compared to the non-isotopically enriched drug [%]
[2H]c1nc(C([2H])([2H])[S+]([O-])c2nc3cc(OC([2H])([2H])[2H])ccc3[nH]2)c(C([2H])([2H])[2H])c(OC([2H])([2H])[2H])c1C([2H])([2H])[2H] (centres unmarked) [Example 10, d15-5-methoxy-2-(4-methoxy-3,5-dimethyl-pyridin-2-ylmethane-sulfinyl)-1H-benzimidazole] | 20-60% | ≥ 10
[2H]c1nc(C[S+]([O-])c2nc3cc(OC([2H])([2H])[2H])ccc3[nH]2)c(C([2H])([2H])[2H])c(OC([2H])([2H])[2H])c1C([2H])([2H])[2H] (centres unmarked) [Example 11, d13-5-methoxy-2-(4-methoxy-3,5-dimethylpyridin-2-ylmethane-sulfinyl)-1H-benzimidazole] | 20-60% | ≥ 10
[2H]c1nc(C[S+]([O-])c2nc3cc(OC([2H])([2H])[2H])ccc3[nH]2)c(C([2H])([2H])[2H])c(OC)c1C([2H])([2H])[2H] (centres unmarked) [Example 13, d10-5-methoxy-2-(4-methoxy-3,5-dimethylpyridin-2-ylmethane-sulfinyl)-1H-benzimidazole] | – | ≥ 10
[2H]c1nc(C([2H])([2H])[S+]([O-])c2nc3cc(OC([2H])([2H])[2H])ccc3[nH]2)c(C([2H])([2H])[2H])c(OC)c1C([2H])([2H])[2H] (centres unmarked) [Example 14, d12-5-methoxy-2-(4-methoxy-3,5-dimethylpyridin-2-ylmethane-sulfinyl)-1H-benzimidazole] | – | ≥ 10
[2H]c1nc(C([2H])([2H])[S+]([O-])c2nc3cc(OC)ccc3[nH]2)c(C([2H])([2H])[2H])c(OC([2H])([2H])[2H])c1C([2H])([2H])[2H] (centres unmarked) [Example 18, d12-5-methoxy-2-(4-methoxy-3,5-dimethylpyridin-2-ylmethane-sulfinyl)-1H-benzimidazole] | – | ≥ 10
[2H]c1nc(C[S+]([O-])c2nc3cc(OC)ccc3[nH]2)c(C([2H])([2H])[2H])c(OC)c1C([2H])([2H])[2H] (centres unmarked) [Example 19, d7-5-methoxy-2-(4-methoxy-3,5-dimethylpyridin-2-ylmethane-sulfinyl)-1H-benzimidazole] | – | ≥ 10
[2H]c1nc(C[S+]([O-])c2nc3cc(OC)ccc3[nH]2)c(C([2H])([2H])[2H])c(OC([2H])([2H])[2H])c1C([2H])([2H])[2H] (centres unmarked) [Example 20, d10-5-methoxy-2-(4-methoxy-3,5-dimethylpyridin-2-ylmethane-sulfinyl)-1H-benzimidazole] | – | ≥ 10
[2H]c1nc(C([2H])([2H])[S+]([O-])c2nc3cc(OC)ccc3[nH]2)c(C([2H])([2H])[2H])c(OC)c1C([2H])([2H])[2H] (centres unmarked) [Example 21, d9-5-methoxy-2-(4-methoxy-3,5-dimethylpyridin-2-ylmethane-sulfinyl)-1H-benzimidazole] | – | ≥ 10

The remaining lines, values ahead:

degradation half-life increased as compared to non-isotopically enriched omeprazole | increase in the degradation half-life, as compared to the non-isotopically enriched drug [%] | Structure (SMILES)
– | ≥ 10 | [2H]C([2H])([2H])Oc1ccc2[nH]c([S+]([O-])C([2H])([2H])c3ncc(C)c(OC([2H])([2H])[2H])c3C)nc2c1 (centres unmarked) [Example 25, d8-5-methoxy-2-(4-methoxy-3,5-dimethylpyridin-2-ylmethane-sulfinyl)-1H-benzimidazole]
– | ≥ 10 | [2H]C([2H])([2H])Oc1ccc2[nH]c([S+]([O-])Cc3ncc(C)c(OC)c3C)nc2c1 (centres unmarked) [Example 26, d3-5-methoxy-2-(4-methoxy-3,5-dimethylpyridin-2-ylmethane-sulfinyl)-1H-benzimidazole]
– | ≥ 10 | [2H]C([2H])([2H])Oc1ccc2[nH]c([S+]([O-])Cc3ncc(C)c(OC([2H])([2H])[2H])c3C)nc2c1 (centres unmarked) [Example 27, d6-5-methoxy-2-(4-methoxy-3,5-dimethylpyridin-2-ylmethane-sulfinyl)-1H-benzimidazole]
– | ≥ 10 | [2H]C([2H])([2H])Oc1ccc2[nH]c([S+]([O-])C([2H])([2H])c3ncc(C)c(OC)c3C)nc2c1 (centres unmarked) [Example 28, d5-5-methoxy-2-(4-methoxy-3,5-dimethylpyridin-2-ylmethane-sulfinyl)-1H-benzimidazole]
– | ≥ 10 | [2H]C([2H])([2H])Oc1c(C)cnc(C([2H])([2H])[S+]([O-])c2nc3cc(OC)ccc3[nH]2)c1C (centres unmarked) [Example 32, d5-5-methoxy-2-(4-methoxy-3,5-dimethylpyridin-2-ylmethane-sulfinyl)-1H-benzimidazole]
– | ≥ 10 | [2H]C([2H])([2H])Oc1c(C)cnc(C[S+]([O-])c2nc3cc(OC)ccc3[nH]2)c1C (centres unmarked) [Example 34, d3-5-methoxy-2-(4-methoxy-3,5-dimethylpyridin-2-ylmethane-sulfinyl)-1H-benzimidazole]
20-60% | ≥ 10 | [2H]c1nc(C[S@+]([O-])c2nc3cc(OC([2H])([2H])[2H])ccc3[nH]2)c(C([2H])([2H])[2H])c(OC([2H])([2H])[2H])c1C([2H])([2H])[2H] [Example 39, d13-(S)-5-methoxy-2-(4-methoxy-3,5-dimethylpyridin-2-ylmethane-sulfinyl)-1H-benzimidazole]

System: not given
Experiment: not given
Details: at steady state, CYP2C19 poor vs extensive metabolizers; cited from earlier work

Structure (SMILES) | ratio of AUC in Poor metabolizers to AUC in the rest of the population (extensive metabolizers)
COc1ccc2nc([S@@+]([O-])Cc3ncc(C)c(OC)c3C)[nH]c2c1 [esomeprazole, (S)-5-methoxy-2-(4-methoxy-3,5-dimethylpyridin-2-ylmethane-sulfinyl)-1H-benzimidazole] | approximately 2

Same assay, conditions: human plasma, relative to omeprazole; cited from earlier work

Structure (SMILES) | half-life in human plasma higher than that of omeprazole [%]
COc1ccc2nc([S@@+]([O-])Cc3ncc(C)c(OC)c3C)[nH]c2c1 [esomeprazole, (S)-5-methoxy-2-(4-methoxy-3,5-dimethylpyridin-2-ylmethane-sulfinyl)-1H-benzimidazole] | 20

System: pylorus-ligated rats
Experiment: Rat gastric activity, pylorus ligation (antisecretory activity)
Type: in vivo
Details: PO 30 mg/kg, 30 minutes before ligation, gastric contents collected 4 hours later, Wistar male rats
Protocol: Compounds of formula (1) according to the present invention were evaluated for possible antisecretory activity in pylorus-ligated rats. […] Wistar derived male rats weighing 210±10 g were fasted overnight. […] Animals were sacrificed 4 hours later and the gastric contents were collected. After centrifugation, the volume of each sample was measured and acidity was determined by titration.

Structure (SMILES) | % inhibition relative to vehicle controls: Acidity (μEq/mL) [%] | % inhibition relative to vehicle controls: Total Acid Output (μEq/4 hours) [%] | % inhibition relative to vehicle controls: Volume (mL/4 hours) [%]
[2H]c1nc(C([2H])([2H])[S+]([O-])c2nc3cc(OC([2H])([2H])[2H])ccc3[nH]2)c(C([2H])([2H])[2H])c(OC([2H])([2H])[2H])c1C([2H])([2H])[2H] (centres unmarked) [Example 10, d15-5-methoxy-2-(4-methoxy-3,5-dimethyl-pyridin-2-ylmethane-sulfinyl)-1H-benzimidazole] | 89 | 95 | 55
